These substances were tested on Listeria innocua 33090 (assay: colony overlay assay of peptide-secreting E. coli clones (library screening and re-test)). Conditions: library screening; selected colonies pooled by zone size; peptides identified by 454 sequencing, full-length sequences with minimum 20 reads.
Type: cell-based
Parameters: key: higher activity group (H); equal activity group (E); lower activity group (L)
Protocol: For the in vivo production of AMPs, we have employed an E. coli expression system that relies on periplasmic-expression of recombinant peptides in a host cell that lacks the lpo membrane protein, thus releasing the peptides present in the periplasmic space outside the cells. When the producer cells are grown into colonies on a solid substrate, it leads to accumulation of the recombinant peptides around the colony and allows for easy library screening. The screening assay used in this study was a modified version of the standard agar diffusion method as previously described. Library-transformed E. coli colonies are overlaid with a tester strain and incubated overnight to allow for peptide expression and tester strain growth. Next day, the plates are inspected for the formation of clear growth inhibition zones around E. coli colonies, which is an indication of active AMP production by the host colony.
For the construction of Pln-423 mutant library in E. coli, the expression system that consists of a periplasmic-leaky E. coli strain JE5505 and the expression plasmid pFLAG-CTS was employed for direct screening of peptide activities. It should be noted here that this plasmid contains ompA secretion signal sequence and cleavage of this sequence results in a serine residue at the N-terminal of all mature peptides. A total of 1.0×10^5 colonies, approximately 8-fold coverage of the library, were screened against Listeria innocua 33090 in five separate screening experiments. L. innocua was previously deemed as a suitable indicator for pathogenic L. monocytogenes displaying similar bacteriocin sensitivity, therefore it was used as a surrogate strain throughout this study. The selection process involved two criteria; 1) the size of the each inhibition zone was compared to that of wild-type Pln-423 as a correlation to anti-listerial activity level, 2) when several colonies formed inhibition zones that are very similar in size and character, only a few from each group were selected. The colonies were pooled into three groups based on their activities, giving 43 clones in a higher activity group (H), 81 clones in an equal activity group (E), and 241 clones in a lower activity group (L). Their plasmids were extracted from each activity group and analyzed by both Sanger and 454 high-throughput sequencing to identify peptide sequences.
These clones were also re-tested by colony overlay assay to compare their activities to wild-type Pln-423 based on the size of the inhibition zone around each clone (Figure 2-A). Based on this assay, all ten plantaricin mutants formed larger inhibition zones (10.3±0.5 to 11.4±0.3 mm zone diameter) compared to wild-type Pln-423 (6.2±0.2 mm) against L. innocua 33090. Out of those ten, three clones have a single mutation and […] clones have two mutations and the remaining single clone has three mutations. […] Positions like Ser23, Ser27, His28, and Lys36 were commonly mutated with similar amino acids indicating their potential role on higher peptide activity.
The screening method used in this study was a modified version of the standard colony overlay method as previously described. All the chemicals and growth media supplements were obtained from either Sigma-Aldrich or Fisher Scientific unless otherwise stated. Transformed E. coli JE5505 cells were diluted to 3000–5000 cfu (determined empirically prior to screening by plating serial dilutions of E. coli suspensions of a known absorbance and counting the colonies after incubation) in 25 ml LB soft agar (0.8%, 45°C) per screening plate and poured into 150 mm petri dishes. Once the media was solidified, they were overlaid with 10 ml LB soft agar (45°C) and incubated at 37°C for 24 h for host-colony formation. Next day, these plates were re-overlaid with 10 ml TSB soft agar containing 1 mM IPTG and the indicator strain Listeria innocua ATCC 33090 (diluted to OD600 = 0.03). […]

| Substance | activity group by size of inhibition zone compared to wild-type Pln-423 |
| --- | --- |
| KYYGNGVTCGKHSCSVNWGGAFSCSVSHLANFGHGWC* [Pep-2_12251] | L |
| KYYGNGVTCGKHSCSVNWGQAFSCSVSHLAEFGHGKC* [Pep-1_80] | L |
| KYYGNGVTCGKHSCSVNWGQAFSCVVSHLANFGHGTC* [Pep-2_4995] | L |
| KYYGNGVTCGKHSCSVNWGQAFACSVSHLANFGHGHC* [Pep-2_11729] | L |
| KYYGNGVTCGKHSCSVNWGQAFSCSVSHLANFGKGKC* [GROUP L-UM-11] | L |
| KYYGNGVTCGKHSCSVNWGQAFSCGVSHLANMGHGKC* [Pep-2_9473] | H |
| KYYGNGVTCGKHSCSVNWGQGFSCSVNHLANFGHGKC* [Pep-2_2457] | L |
| KYYGNGVTCGKHSCSVNWGQAFSCSVSSLANFGHGLC* [Pep-2_12081] | E |
| KYYGNGVTCGKHSCSVNWGQAFSCAFSHLANFGHGKC* [Pep-2_5044] | L |
| KYYGNGVTCGKHSCSVNWGQAFSCSVGVLANFGHMHC* [GROUP L-UM-19] | L |
| KYYGNGVTCGKHSCSVNWGQAFSCSVSHMANFGHGKC* [Pep-1_70] | L |
| KYYGNGVTCGKHSCSVNWGQAFSCRVEHLANFGHGKC* [Pep-2_6013] | L |
| KYYGNGVTCGKHSCSVNWGQAFSCSWSHLANYGHGKC* [Pep-2_5835] | L |
| KYYGNGVTCGKHSCSVNWGQAFSCSMSHLANFGHGKC* [GROUP L-UM-5] | L |
| KYYGNGVTCGKHSCSVNWGQAFSCSVSRLANFGHGKC* [Pep-1_61] | E and H |
| KYYGNGVTCGKHSCSVNWGQAFECRVSHLANFGHGKC* [Pep-2_3415] | L and H |
| KYYGNGVTCGKHSCSVNWGQAFSCSVSHLANFGWGKC* [Pep-1_102] | L |
| KYYGNGVTCGKHSCSVNWGQAFSCSVSHLANFGHGLC* [Pep-1_112] | L |
| KYYGNGVTCGKHSCSVNWGQAFSCSVSHFANFGHGKC* [GROUP E-UM-8] | E |
| KYYGNGVTCGKHSCSVNWGQAFSCFVSRLANFGHGKC* [Pep-2_6556] | L |
| KYYGNGVTCGKHSCSVNWGQAFSCSVEHLANFGYGKC* [Pep-2_6063] | E |

| Substance | activity group by size of inhibition zone compared to wild-type Pln-423 |
| --- | --- |
| KYYGNGVTCGKHSCSVNWGQAFSCYMSHLANFGHGAC* [GROUP L-UM-9] | L |
| KYYGNGVTCGKHSCSVNWGQAFACSVSHLANFGFGKC* [GROUP L-UM-23] | L |
| KYYGNGVTCGKHSCRVNWAQAFSCTVSHLANFGHGKC* [GROUP L-UM-2] | L |
| KYYGNGVTCGKHSCSVNWGQAFSCSVSHLANFGHGRC* [GROUP L-UM-25] | L |
| KYYGNGVTCGKHSCSVNWGRAFSCSVSRLANFGHGKC* [Pep-2_6523] | L |
| KYYGNGVTCGKHSCSVNWGQAFSCRVSHLANFGHGKC* [GROUP L-UM-13] | L |
| KYYGNGVTCGKHSCSVNWGQAFSCSVSHLAWFGHGKC* [Pep-1_84] | L |
| KYYGNGVTCGKHSCSVNWGQAFSCSVSDLANFGHGKC* [Pep-1_62] | L |
| KYYGNGVTCGKHSCSVNWGQAFSCMVSHLANGGHGKC* [Pep-2_9580] | L |
| KYYGNGVTCGKHSCSVNWGQAFSCSVSKLAHFGHGKC* [Pep-2_8515] | L |
| KYYGNGVTCGKHSCSVNWGQAFSCSVVHLANFGHGKC* [Pep-1_58] | L and E |
| KYYGNGVTCGKHSCSVNWGQAFSCSVTHLANFGHGRC* [Pep-2_6181] | E |
| KYYGNGVTCGKHSCSVNWGQAFVCSNSHLANFGHGKC* [Pep-2_3639] | L |
| KYYGNGVTCGKHSCSVNWGQAFSCSVSVLANFGHGNC* [Pep-2_6939] | L |
| KYYGNGVTCGKHSCSVNWGQAFSCSTSHLANFGHGKC* [GROUP E-UM-4] | E |
| KYYGNGVTCGKHSCSVNWAQAFSCNVSHLANFGHGKC* [Pep-2_4793] | L |
| KYYGNGVTCGKHSCSVNWGQAFSCSVSVLANFGHGKC* [Pep-1_64] | E |
| KYYGNGVTCGKHSCSVNWGQAFSCSFSHLANFGHGKC* [Pep-1_52] | L |
| KYYGNGVTCGKHSCSVNYGQAFSCSVSHLANFGHGAC* [Pep-2_335] | E |
| KYYGNGVTCDKHSCSVNWGQAFKCSVDHLANFGHGKC* [GROUP H-UM-4] | H |
| KYYGNGVTCGKHSCSVNWGLAFSCSVSNLANFGHGKC* [Pep-2_6742] | L |

| Substance | activity group by size of inhibition zone compared to wild-type Pln-423 |
| --- | --- |
| KYYGNGVTCGKHSCSVNWGQAFSCVVSHLANFGHGKC* [Pep-1_46] | L |
| KYYGNGVTCGKHSCSVNWGQAFSCSVSHLAWFGHGHC* [Pep-2_9097] | L |
| KYYGNGVTCGKHSCSVNWGQAYSCSVSHLANFGHGKC* [GROUP L-UM-21] | L |
| KYYGNGVTCGKHSCSVNWGRAFSCSVAHLANFGHGKC* [Pep-2_6307] | L |
| KYYGNGVTCGKHSCSVNWGQAFSCSVSNLANFGHGCC* [Pep-2_6834] | L |
| KYYGNGVTCGKHSCSVNWAQAFSCSVSHLANFGHGLC* [Pep-2_12029] | L |
| KYYGNGVTCGKHSCSVNWGQAFSCSVSVLANFGHNKC* [Pep-2_6933] | L |
| KYYGNGVTCGKHSCSVNWGQAFMCSLSHLANFGHGKC* [GROUP L-UM-7] | L |
| KYYGNGVTCGKHSCSVNWGQAFSCSVCHMANFGHGKC* [Pep-2_7542] | L |
| KYYGNGVTCGKHSCSVNWGQAFSCSVSNLANFGHGKC* [Pep-1_63] | E |
| KYYGNGVTCGKHSCSVNWGQAFSCSVSHLANFGEGKC* [Pep-1_98] | H |
| KYYGNGVTCGKHSCSVNWGQVFSCSVSHLANFGHGHC* [Pep-2_11716] | L |
| KYYGNGVTCGKHSCSVNWGQAFSCSVIALANFGHGKC* [Pep-2_7000] | L |
| KYYGNGVTCGKHSCSVNWGQAFSCSVSHLANFGHAKC* [Pep-1_107] | L |
| KYYGNGVTCGKHSCSVNWGQAFSCSVSHLAKFGHGKC* [Pep-1_81] | L |
| KYYGNGVTCGKHSCSVNWAQAFSCSVVHLANFGHGKC* [Pep-2_6197] | L |
| KYYGNGVTCGKHSCSVNWGQAFSCSVHHLANYGHGKC* [Pep-2_5943] | L |
| KYYGNGVTCGKHSCSVNWGQAFACSVSHLANFGHGFC* [Pep-2_3808] | L and E |
| KYYGNGVTCGKHSCSVNWGQAFSCSVLHLANFGHGKC* [GROUP L-UM-20] | L |

Reference: paper PMC3602187, “From Design to Screening: A New Antimicrobial Peptide Discovery Pipeline” (PLoS ONE, 2013)
